Key:
[1] = biological target: T1, Progesterone receptor (Homo sapiens, UniProt P06401); experiment: Binding affinity to progesterone receptor (unknown origin) by fluorescence polarization assay
T1 sequence (P06401 whole entry): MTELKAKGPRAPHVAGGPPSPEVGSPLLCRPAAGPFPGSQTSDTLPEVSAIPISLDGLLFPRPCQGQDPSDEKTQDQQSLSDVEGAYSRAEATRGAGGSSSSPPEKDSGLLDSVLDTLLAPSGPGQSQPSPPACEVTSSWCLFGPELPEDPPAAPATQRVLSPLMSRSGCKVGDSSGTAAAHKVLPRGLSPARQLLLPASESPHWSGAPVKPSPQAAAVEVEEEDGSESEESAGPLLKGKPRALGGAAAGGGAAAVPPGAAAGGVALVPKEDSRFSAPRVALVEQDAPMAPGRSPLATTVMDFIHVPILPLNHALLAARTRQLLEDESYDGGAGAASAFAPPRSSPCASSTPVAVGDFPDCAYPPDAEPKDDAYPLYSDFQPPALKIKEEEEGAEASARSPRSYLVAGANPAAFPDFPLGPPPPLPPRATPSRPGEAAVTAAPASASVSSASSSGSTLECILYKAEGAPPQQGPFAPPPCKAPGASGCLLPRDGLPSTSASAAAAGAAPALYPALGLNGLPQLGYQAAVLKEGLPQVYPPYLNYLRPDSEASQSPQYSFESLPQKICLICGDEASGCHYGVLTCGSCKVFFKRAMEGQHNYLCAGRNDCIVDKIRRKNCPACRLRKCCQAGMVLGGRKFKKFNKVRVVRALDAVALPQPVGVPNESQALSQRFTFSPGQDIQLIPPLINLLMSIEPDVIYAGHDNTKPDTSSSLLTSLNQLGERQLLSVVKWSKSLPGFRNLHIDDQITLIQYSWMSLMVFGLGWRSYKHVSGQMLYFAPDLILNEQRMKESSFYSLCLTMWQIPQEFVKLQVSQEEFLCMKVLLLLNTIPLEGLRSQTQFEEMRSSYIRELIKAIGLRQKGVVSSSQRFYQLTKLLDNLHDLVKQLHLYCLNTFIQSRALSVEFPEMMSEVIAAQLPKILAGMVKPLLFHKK

[2] = biological target: T2, Glucocorticoid receptor (Homo sapiens, UniProt P04150); set-up: species or system Blood
T2 sequence (P04150 whole entry): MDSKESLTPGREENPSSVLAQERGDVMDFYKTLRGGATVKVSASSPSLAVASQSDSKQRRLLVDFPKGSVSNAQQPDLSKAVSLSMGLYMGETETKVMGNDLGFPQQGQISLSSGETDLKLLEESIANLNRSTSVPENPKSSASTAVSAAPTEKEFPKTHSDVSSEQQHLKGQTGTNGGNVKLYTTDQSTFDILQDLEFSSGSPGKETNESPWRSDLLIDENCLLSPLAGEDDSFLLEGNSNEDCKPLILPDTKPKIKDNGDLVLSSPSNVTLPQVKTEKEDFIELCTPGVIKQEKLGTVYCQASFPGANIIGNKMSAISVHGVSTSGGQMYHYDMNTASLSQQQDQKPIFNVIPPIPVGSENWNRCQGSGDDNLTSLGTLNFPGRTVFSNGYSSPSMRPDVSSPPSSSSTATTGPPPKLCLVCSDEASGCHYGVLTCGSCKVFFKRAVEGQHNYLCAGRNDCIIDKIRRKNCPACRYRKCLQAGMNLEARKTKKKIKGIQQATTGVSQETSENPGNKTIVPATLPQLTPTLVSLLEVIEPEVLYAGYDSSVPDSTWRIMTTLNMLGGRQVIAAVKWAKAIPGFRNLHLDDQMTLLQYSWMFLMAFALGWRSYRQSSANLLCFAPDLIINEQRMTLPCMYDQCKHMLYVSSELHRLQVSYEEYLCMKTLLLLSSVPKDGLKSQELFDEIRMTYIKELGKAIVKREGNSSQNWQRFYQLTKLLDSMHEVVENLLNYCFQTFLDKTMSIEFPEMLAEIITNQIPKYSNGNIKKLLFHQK

[3] = biological target: T2, Glucocorticoid receptor; experiment: Agonist activity at glucocorticoid receptor in human HeLa cells assessed as NP-1 transactivation by luciferase reporter gene assay; format: cell-based
[4] = system: Liver microsome; experiment: Metabolic stability in human liver microsomes assessed as compound remaining
[5] = system: Liver microsome; experiment: Metabolic stability in rat liver microsomes assessed as compound remaining
[6] = biological target: T2, Glucocorticoid receptor; experiment: Agonist activity at glucocorticoid receptor in human A549 cells assessed as E-selectin transrepression by luciferase reporter gene assay; format: cell-based
[7] = biological target: T2, Glucocorticoid receptor; experiment: Binding affinity to glucocorticoid receptor (unknown origin) by fluorescence polarization assay
[8] = biological target: T2, Glucocorticoid receptor; experiment: Agonist activity at glucocorticoid receptor in human A549 cells assessed as AP-1 transrepression by luciferase reporter gene assay; format: cell-based
[9] = system: Liver; experiment: Metabolic stability in mouse liver microsomes assessed as compound remaining

Row | Compound | Ki [1] | EC50 [2] | EC50 [3] | Stability [4] | Stability [5] | EC50 [6] | Ki [7] | EC50 [8] | Stability [9]
1 | COc1ccc(CNC(=O)NC(=O)C(C)(C)[C@@H]2c3ccc(-c4ccc(C(=O)N5CCOCC5)cc4)nc3Oc3c(F)cccc32)cc1 | 623 nM |  |  |  |  |  |  |  | 
2 | CC(C)(O)c1ccc(-c2ccc3c(n2)Oc2c(F)cccc2[C@@H]3C(C)(C)C(=O)NC(N)=O)cn1 | 106 nM | 199 nM | 107 nM | 73% | 83% | 14.7 nM | 4 nM | 21.9 nM | 76%
3 | C[C@@H]1C[C@H]2[C@@H]3CCC4=CC(=O)C=C[C@]4(C)[C@@]3(F)[C@@H](O)C[C@]2(C)[C@@]1(O)C(=O)CO [DEXAMETHASONE] | 778 nM |  |  |  |  |  |  |  | 
4 | CC(C)(C(=O)NC(N)=O)[C@@H]1c2ccc(-c3ccc(C(=O)N4CCCC4)cc3)nc2Oc2c(F)cccc21 | 604 nM |  | 5.3 nM | 89% | 71% | 1.4 nM | 0.7 nM | 1.6 nM | 73%
5 | CC(C)(C(=O)NC(=O)NC1CCC1)[C@@H]1c2ccc(-c3ccc(C(=O)N4CCOCC4)cc3)nc2Oc2c(F)cccc21 | 5340 nM | 2380 nM | 676 nM |  |  | 32.8 nM | 8.7 nM | 17.5 nM | 
6 | CC(C)(C(=O)NC(N)=O)[C@H]1c2ccccc2Oc2nc(-c3ccc(C(=O)N4CCOCC4)cc3)ccc21 | 282 nM | 3050 nM | 11 nM | 95% | 86% | 4.8 nM | 1.5 nM | 6.2 nM | 75%
7 | CNC(=O)NC(=O)C(C)(C)[C@@H]1c2ccc(-c3ccc(C(=O)N4CCOCC4)cc3)nc2Oc2c(F)cccc21 | 1170 nM | 1040 nM | 302 nM |  |  | 16.1 nM | 6.9 nM | 10.7 nM | 
8 | CC(C)(C(=O)NC(N)=O)[C@H]1c2ccccc2Oc2nc(-c3ccc(C(=O)N4CCCC4)cc3)ccc21 | 2320 nM | 207 nM | 49.3 nM | 78% | 49% | 5 nM | 1.9 nM | 8.7 nM | 76%
9 | CN(C)C(=O)c1ccc(-c2ccc3c(n2)Oc2ccccc2[C@@H]3C(C)(C)C(=O)Nc2nncs2)cc1 | 1530 nM | 830 nM | 242 nM |  |  | 33.8 nM | 1.9 nM | 33.2 nM | 
10 | CC(C)C(=O)NC(=O)C(C)(C)[C@@H]1c2ccc(-c3ccc(C(=O)N4CCOCC4)cc3)nc2Oc2c(F)cccc21 | 5040 nM | 389 nM | 1040 nM |  |  | 74.8 nM |  | 23.7 nM | 
11 | CC(C)(C(=O)NC(=O)C1CCC1)[C@@H]1c2ccc(-c3ccc(C(=O)N4CCOCC4)cc3)nc2Oc2c(F)cccc21 | 5340 nM | 2380 nM | 586 nM |  |  | 32.8 nM | 8.7 nM | 17.5 nM | 
12 | CCN(C)C(=O)c1ccc(-c2ccc3c(n2)Oc2ccccc2[C@@H]3C(C)(C)C(=O)Nc2nncs2)cc1 | 1830 nM | 379 nM | 98.5 nM |  |  | 6.89 nM | 1.6 nM | 17.7 nM | 
13 | CN(C)C(=O)NC(=O)C(C)(C)[C@@H]1c2ccc(-c3ccc(C(=O)N4CCOCC4)cc3)nc2Oc2c(F)cccc21 | 10600 nM |  | 8910 nM |  |  | 203 nM | 110 nM | 907 nM | 
14 | CC(=O)NC(=O)C(C)(C)[C@@H]1c2ccc(-c3ccc(C(=O)N(C)C)cc3)nc2Oc2c(F)cccc21 | 12400 nM | 1890 nM | 1050 nM |  |  | 109 nM | 69.4 nM | 213 nM | 
15 | CC(C)(C(=O)NC(N)=O)[C@@H]1c2ccc(-c3ccc(C(=O)N4CCOCC4)nc3)nc2Oc2c(F)cccc21 | 22.7 nM |  |  |  |  |  |  |  | 
16 | CCNC(=O)NC(=O)C(C)(C)[C@@H]1c2ccc(-c3ccc(C(=O)N4CCOCC4)cc3)nc2Oc2c(F)cccc21 | 2910 nM |  |  |  |  |  |  |  | 
17 | CC(C)(C(=O)NC(N)=O)[C@@H]1c2ccc(-c3ccc(C(=O)N4CC[C@H](F)C4)cc3)nc2Oc2c(F)cccc21 | 33300 nM |  | 1.3 nM | 56% | 67% | 0.6 nM | 1.2 nM | 0.8 nM | 77%
18 | CC(=O)NC(=O)C(C)(C)[C@@H]1c2ccc(-c3ccc(C(=O)N4CCCC4)cc3)nc2Oc2c(F)cccc21 | 12400 nM | 218 nM | 27 nM |  |  | 3.6 nM | 2.5 nM | 5.1 nM | 
19 | CC(C)(C(=O)NC(=O)C1CC1)[C@@H]1c2ccc(-c3ccc(C(=O)N4CCOCC4)cc3)nc2Oc2c(F)cccc21 | 2040 nM | 418 nM | 177 nM |  |  | 17.6 nM | 8.5 nM | 18.4 nM | 
20 | CC(=O)NC(=O)C(C)(C)[C@@H]1c2ccc(-c3ccc(C(=O)N4CCOCC4)cc3)nc2Oc2c(F)cccc21 | 268 nM | 88 nM | 14 nM |  |  | 3.2 nM | 5.9 nM | 5 nM | 
21 | CC(C)(C(=O)NC(N)=O)[C@@H]1c2ccc(-c3ccc(C(=O)N4CCCC4)nc3)nc2Oc2c(F)cccc21 | 1360 nM | 211 nM | 113 nM | 73% | 86% | 12.2 nM | 2 nM | 16.5 nM | 86%

From ChEMBL document CHEMBL3351663, “Discovery of acylurea isosteres of 2-acylaminothiadiazole in the azaxanthene series of glucocorticoid receptor agonists” (Bioorg Med Chem Lett, 2014)
